# Assays:
# [1] = target: T1, HCV polymerase (NS5B570n-Con1) (Hepatitis C virus genotype 1b, UniProt Q9WMX2); assay: HCV NS5B RNA polymerase activity; type: biochemical, HCV Con1 strain
# T1 construct: a 21 amino acid C-terminal deletion of full-length HCV polymerase derived from HCV Con1 strain; made in house; host or cells: E. coli BL21(DE3) pLysS, plasmid pET17b
# Method: The enzymatic activity of HCV polymerase (NS5B570n-Con1) was measured as the incorporation of radiolabeled nucleotide monophosphates into acid insoluble RNA products. Unincorporated radiolabeled substrate was removed by filtration and scintillant was added to the washed and dried filter plate containing radiolabeled RNA product. The amount of RNA product generated by NS5B570n-Con1 at the end of the reaction was directly proportional to the amount of light emitted by the scintillant.
# The HCV polymerase used in the enzymatic activity assay is a 21 amino acid C-terminal deletion of full-length HCV polymerase derived from HCV Con1 strain, genotype 1b (GenBank accession number AJ242654) (NS5B570n-Con1). The NS5B570n-Cont was sub-cloned downstream to the T7 promoter of the plasmid expression construct pET17b and transformed into E. coli strain BL21(DE3) pLysS for protein expression. A single colony was used to start an innoculum for a 10 L culture in LB media supplemented with 100 μg/mL ampicillin at 37° C. […]
# The amount of light emitted from the scintillant was converted to counts per minute (CPM) on a Topcount® plate reader (Perkin-Elmer, Energy Range: Low, Efficiency Mode: Normal, Count Time: 1 min, Background Subtract: none, Cross talk reduction: Off).
# Data was analyzed in Excel® (Microsoft®) and ActivityBase® (Idbs®). […] All data was expressed as a percentage of the positive control. […]
# [2] = test system: HCV; details: monotherapy; cited from earlier work
# [3] = test system: human hepatoma Huh7 cells; assay: Phosphorylation in Huh7 replicon cells; type: in vitro ADME
# Description: (FIG. 2) Since the cell specific phosphorylation takes place in the target tissue for HCV replication, there is the potential that 4′-AU will be selectively phosphorylated in the target tissue vis-à-vis other tissues thereby minimizing off target toxicity.
# [4] = test system: primary human hepatocytes; assay: Uptake and phosphorylation in primary human hepatocytes; type: in vitro ADME
# Method: The analysis of uptake and phosphorylation of the nucleoside analog 4AU in primary human hepatocytes was performed as previously published (Ma, H. et al. J. Biol. Chem. 2007, 282:29812-29820). Fresh human hepatocytes were plated and incubated with ^3H-labeled 4AU for different time spans. At the time of cell harvest the cell culture medium was aspirated, and the cells were washed once with cold phosphate-buffered saline. The cells were scraped into 1 mL of pre-chilled 60% (v/v) methanol containing 10 mM EDTA and extracted in methanol for 24 h at −20° C. The extracted samples were then centrifuged at 10,000×g for 15 min to remove cell debris. The supernatant was transferred to new tubes and evaporated in a speed vacuum at room temperature. The dried pellets of cell extracts were dissolved in H2O. Before HPLC analysis, cell extract samples were spiked with unlabeled reference standards 4AU and 4AU-mono-, di- and triphosphate derivatives.
# The phosphorylation derivatives of 4AU were separated by ion exchange HPLC with a Whatman Partisil 10 SAX (4.6×250 mm) column coupled to a radiometric detector (β-RAM, IN/US Systems, Inc.). The mobile phase gradient changed linearly from 99% buffer A (H2O) and 1% buffer B (0.5 M KH2PO4+0.8 M KCl) to 100% buffer B between 4 and 16 minutes. 100% buffer B ran from 16 minutes to 26 minutes and changed back to 100% A in 1 minute. Buffer A ran until 32 minutes. […]
# [5] = test system: HCV replicon (human hepatoma Huh7 cells); details: cited from earlier work
# [6] = test system: HCV; details: cited from earlier work
smiles,measurement,setting,value
"[N-]=[N+]=N[C@]1(COP(=O)(O)OP(=O)(O)OP(=O)(O)O)O[C@@H](n2ccc(N)nc2=O)[C@H](O)[C@@H]1O [4′-AC-triphosphate, 4′-azido-cytidine triphosphate]",IC50,[1],29 ± 0.13 µM
"NC(=O)c1ncn([C@@H]2O[C@H](CO)[C@@H](O)[C@H]2O)n1 [ribavirin, 1-((2R,3R,4S,5R)-3,4-Dihydroxy-5-hydroxymethyl-tetrahydro-furan-2-yl)-1H-[1,2,4]triazole-3-carboxylic acid amide]",effect on serum levels of HCV-RNA,[2],does not lower serum levels of HCV-RNA
same,patients with serum amino transferase levels reduced to normal,[2],40%
CC(=O)OC(O)[C@@]1(N=[N+]=[N-])O[C@@H](n2ccc(=O)[nH]c2=O)[C@@](O)(OC(C)=O)[C@@]1(O)OC(C)=O (some centres unmarked),melting point,,158 °C
"[N-]=[N+]=N[C@]1(COP(=O)(O)OP(=O)(O)OP(=O)(O)O)O[C@@H](n2ccc(=O)[nH]c2=O)[C@H](O)[C@@H]1O [4′-AU triphosphate, 4-azidouridine triphosphate]",IC50,[1],0.46 ± 0.088 µM
"[N-]=[N+]=N[C@]1(CO)O[C@@H](n2ccc(=O)[nH]c2=O)[C@H](O)[C@@H]1O [4′-AU, 4′-azido-uridine]",phosphorylation in Huh7 cells used in the replicon assay,[3],lack of phosphorylation
same,efficiency of phosphorylation relative to 4′-AC,"[4]; 4′-AU vs 4′-AC, human hepatocytes",approximately 10 fold
same,phosphorylation in primary human hepatocytes,[4]; primary human hepatocytes,phosphorylation does occur efficiently
same,activity in the replicon assay,[5],inactive
"[N-]=[N+]=N[C@]1(CO)O[C@@H](n2ccc(N)nc2=O)[C@H](O)[C@@H]1O [4′-AC, 4′-azido-cytidine]",inhibition of viral replication,[6],potent inhibitor of viral replication
"CCC(=O)O[C@H]1[C@H](n2ccc(=O)[nH]c2=O)O[C@@](CO)(N=[N+]=[N-])[C@H]1OC(=O)CC [I-1, Propionic acid (2R,3R,4S,5R)-5-azido-2-(2,4-dioxo-3,4-dihydro-2H-pyrimidin-1-yl)-5-hydroxymethyl-4-propionyloxy-tetrahydro-furan-3-yl ester]",melting point,,118 to 120 °C
